Marks after values point to notes of the source that are not given here.
How the values were obtained:
[1] = test system: Male Wistar rats, embolic focal cerebral ischemia (MCA); experiment: Neuroprotection in rat embolic stroke model; assay type: in vivo; conditions: for infarction volume: 48 h, mean±SEM; for Hemorrhage rate / Mortality rate (pre-mature death) / Seizure occurrence: n=10; for Neurological deficits (modified Bederson score): median (25-75th percentile)
Text: Male Wistar rats, weighting 300-350 g, were purchased from Charles River, St. Constant, Canada. Embolic focal cerebral ischemia was induced by embolizing a preformed clot into the middle cerebral artery (MCA). (For details of the procedure see Wang C X, Yang Y, Shuaib A. A focal embolic model of cerebral ischemia in rats. Brain Res. Protoc. 7:115-120, 2001. Wang C, Yang T and Shuaib A: An improved version of embolic model of brain ischemic injury in the rat. J. Neurosci. Meth. 109:147-151, 2001).
The study consisted of four groups (n=10). Animals were randomly assigned to one of the four groups. Treatments were started at 1 h after MCA occlusion. […] In the control group, 0.5% DMSO (1.5 ml) was infused.
The procedure for assessment of infarct volume were detailed previously (Bederson J B, Pitts L H, Tsuji M, Nishimura M C, Davis R L, Bartkowski H. Rat middle cerebral artery occlusion: evaluation of the model and development of a neurologic examination. Stroke 17:472-476, 1986. Yang, Y., Shuaib, A., and Li, Q. Quantification of infarct size on focal cerebral ischemia model of rats using a simple and economical method. J. Neurosci. Meth., 84:9-16, 1998). Briefly, at 48 h after ischemia the anesthetized animal was sacrificed by decapitation and the brain removed. The volume of infarction was measured in the brain sections stained with 2,3,5-triphenyltetrazolium chloride (TTC) solution with following formula, corrected infarct size=the volume of the left hemisphere−(the volume of the right hemisphere-measured infarct volume). The percentage of infarct volume was obtained by calculating the portion of the corrected infarct volume and dividing it by the total volume of the left hemisphere. Brain swelling was determined using a formula: swelling (edema)=(volume of the right hemisphere[…])/volume of the left hemisphere. Hemorrhage transformation was identified from the TTC stain brain sections.
Neurological deficits and seizure activities were recorded at 2, 24 and 48 hours after embolization. Neurological deficits were determined using a modified Bederson's scoring system (Bederson J B, Pitts L H, Tsuji M, Nishimura M C, Davis R L, Bartkowski H. Rat middle cerebral artery occlusion: evaluation of the model and development of a neurologic examination. Stroke (17:472-476, 1986). 0: no observable deficit; 1: forelimb flexion; 2: forelimb flexion plus decreased resistance to lateral push; 3: unidirectional circling; 4: unidirectional circling plus decreased level of consciousness. Seizure activity, hemorrhage and mortality were also recorded. […]. Results are shown in Table 25-1
The differences of infarction volume were analyzed with one way ANOVA followed by Dunnett's test. Neurological deficit scores were reported as medians and interquartile ranges, considering 25-75th percentile. The neurological scores were analyzed with Kruskal-Wallis test when more than two groups, and analyzed with Mann-Whitney test when comparison was done in two groups. The rates of mortality and seizure occurrence following different treatments were compared with Chi-square test. Differences were considered significant when p<0.05.

[2] = test system: Platelets from HIT patients; experiment: Heparin-induced aggregation and ATP release of platelets from HIT patients; assay type: cell-based, human
Text: XL was capable of inhibiting the aggregation of platelets drawn from patients known to have heparin induced thrombocytopenia (HIT). Platelets from HIT patients were challenged with 0.5 U/ml concentration of heparin in the presence and absence of drug. […] XL is useful as an antiplatelet treatment for HIT patients who cannot be administered heparin due to the immune reaction with heparin that leads to aggregation rather than thrombolysis.
Platelets were drawn from HIT patients and challenged with heparin to a final concentration of 0.5 U/ml of low molecular weight heparin, in the presence and absence of the drug. […] ATP was detected in a lumi aggregometor (Chronolog Corp.). A luciferin-luciferase mixture was used to detect ATP release. The luciferin-luciferase mixture was previously calibrated to a known amount of ATP. Thus a spike in ATP release indicated platelet aggregation. As shown by the data, HIT patents have a large amplitude release when there is no XL compound present. When XL compound is present it inhibits this characteristic release of ATP.
Low heparin is low molecular weight heparin and high heparin is unfractionated heparin. The presence of low molecular weight heparin will cause platelet aggregation. All samples were treated with a constant final concentration of heparin; 0.5 U/ml—low and 100 U/ml high. HIT causes platelet aggregation in the Low Concentration of Heparin only, as well as a ration of >5.0 when comparing the Low/High concentration of Heparin.

Q: With `Cc1ncc(CNc2ccc(-c3ccc(C(=N)N)cc3)cc2)c(CO)c1O` [Compound XL] as the compound, how does the infarction volume ([1]; 10 mg/kg at 1 h after embolization, control 40±2.6%) read?
A: The infarction volume was 30.5±4.8%.

Q: What about the Hemorrhage rate ([1]; 10 mg/kg group, control 1 rat) of the same compound?
A: Its Hemorrhage rate is 2 rats.

Q: And the “Mortality rate (pre-mature death)” value ([1]; 10 mg/kg group, control 1 rat)?
A: Its value is 1.

Q: What about the Seizure occurrence ([1]; 10 mg/kg group, control 2 rats) of the same compound?
A: Its Seizure occurrence is 3 rats.

Q: And the Ischemic brain edema ([1]; 10 mg/kg, control 5.7±1.3)?
A: Its Ischemic brain edema is 6.8±1.9.

Q: And the “Neurological deficits (modified Bederson score)” value (from here on “Neurological deficits”) ([1]; 10 mg, 2 h after injury)?
A: The value was 3 (3-3).

Q: And the “Neurological deficits” value ([1]; 10 mg, 24 h after injury)?
A: Its value is 2 (2-3)*.

Q: What about the “Neurological deficits” value ([1]; 10 mg, 48 h after injury) of the same compound?
A: Its value is 2 (2-3)*.

Q: And the Ischemic brain edema ([1]; 20 mg/kg)?
A: The Ischemic brain edema was 5.9±1.3.

Q: What about the infarction volume ([1]; 20 mg/kg at 1 h after embolization) of the same compound?
A: The infarction volume was 26.5±4.4%.

Q: And the Hemorrhage rate ([1]; 20 mg/kg group)?
A: Its Hemorrhage rate is 1 rat.

Q: And the “Mortality rate (pre-mature death)” value ([1]; 20 mg/kg group)?
A: The value was 1.

Q: And the Seizure occurrence ([1]; 20 mg/kg group)?
A: The Seizure occurrence was 2 rats.

Q: And the “Neurological deficits” value ([1]; 20 mg, 2 h after injury)?
A: The value was 3 (3-3).

Q: And the “Neurological deficits” value ([1]; 20 mg, 24 h after injury)?
A: The value was 2 (2-3)*.

Q: And the “Neurological deficits” value ([1]; 20 mg, 48 h after injury)?
A: Its value is 2 (2-3)*.

Q: What about the Ischemic brain edema ([1]; 40 mg/kg) of the same compound?
A: The Ischemic brain edema was 7.9±2.1.

Q: What about the infarction volume ([1]; 40 mg/kg at 1 h after embolization) of the same compound?
A: Its infarction volume is 25.9±3.4%.

Q: What about the Hemorrhage rate ([1]; 40 mg/kg group) of the same compound?
A: Its Hemorrhage rate is 2 rats.

Q: What about the Seizure occurrence ([1]; 40 mg/kg group) of the same compound?
A: The Seizure occurrence was 2 rats.

Q: And the “Neurological deficits” value ([1]; 40 mg, 2 h after injury)?
A: Its value is 3 (3-3).

Q: What about the “Neurological deficits” value ([1]; 40 mg, 24 h after injury) of the same compound?
A: The value was 2 (2-3)*.

Q: And the “Neurological deficits” value ([1]; 40 mg, 48 h after injury)?
A: The value was 2.5 (2-2)*.

Q: What about the “effects of heparin induced thrombocytopenia (HIT)” value ([2]; 500 micromolar) of the same compound?
A: Its value is “completely suppress”.

Q: And the “aggregation of platelets from HIT patients” value ([2]; 500 micromolar, 0.5 U/ml heparin)?
A: Its value is “completely suppress”.

Q: What about the “Amplitude of ATP release spike (low Heparin)” value (“Amplitude of ATP release spike” below) ([2]; Patient 1, 500 μM, 0.5 U/ml low heparin, without drug 363) of the same compound?
A: Its value is 14.

Q: What about the “Ratio of Low/High Heparin” value ([2]; Patient 1, 500 μM, without drug 42.4, HIT ratio >5.0) of the same compound?
A: The value was 1.9.

Q: And the “Aggregation (Low Heparin)” value ([2]; Patient 1, 500 μM, without drug Present)?
A: Its value is “Absent”.

Q: What about the “Aggregation (Low Heparin)” value ([2]; Patient 1, 2 mM) of the same compound?
A: Its value is “Absent”.

Q: And the “Amplitude of ATP release spike” value ([2]; Patient 1, 2 mM)?
A: Its value is 28.

Q: What about the “Ratio of Low/High Heparin” value ([2]; Patient 1, 2 mM) of the same compound?
A: The value was 2.7.

Q: And the “Ratio of Low/High Heparin” value ([2]; Patient 2, 500 μM, without drug 37.6)?
A: The value was 1.6.

Q: And the “Amplitude of ATP release spike” value ([2]; Patient 2, 500 μM, without drug 286)?
A: Its value is 11.

Q: And the “Aggregation (Low Heparin)” value ([2]; Patient 2, 500 μM, without drug Present)?
A: Its value is “Absent”.

Q: What about the “Aggregation (Low Heparin)” value ([2]; Patient 2, 2 mM) of the same compound?
A: The value was “Absent”.

Q: And the “Amplitude of ATP release spike” value ([2]; Patient 2, 2 mM)?
A: The value was 12.

Q: And the “Ratio of Low/High Heparin” value ([2]; Patient 2, 2 mM)?
A: The value was 1.6.

Q: And the “characteristic release of ATP of HIT platelets” value ([2]; heparin challenge, lumi aggregometer)?
A: The value was “inhibits”.
